In brackets after ≈: the same amount, converted by molar mass.
Key:
Citrobacter = test: MIC in agar, Citrobacter; format: cell-based; settings: Isosensitest agar, 10^4 CFU, 24 h, 37° C., read-out: MIC, G = Citrobacter
Protocol: (§1) The antibacterial activity (minimum inhibiting concentration, MIC) of the compounds according to the invention has been determined in agar, by adding the compound under evaluation at concentrations of from 0.1 to 100 meg/ml by means of a "multipoint inoculator" (Denley Techn. Ltd., England); the medium used was Isosensitest agar (Oxoid); the bacterial inoculate was 10^4 colony forming unity (CFU) per inoculation point. The reading of the results was done after 24 hour-incubation in thermostat at 37° C.
(§2) The MIC was defined as the lowest concentration of chemotherapeutic agent still capable of totally inhibiting the growth of bacteria, as detected from a lack of colony development in the inoculation point.
(§3) The microorganisms used for evaluating the activity of the specific compounds have been: Escherichia coli, Klebsiella P., Enterobacter, Serratia, Citrobacter, Proteus (+), Salmonella, Pseudomonas, Staphylococcus. All the compounds according to the present invention are provided with antibacterial activity against one or more microorganism(s) among those above mentioned. Some of such compounds are absorbed after having been administered orally to the animals, and are particularly useful as disinfectants of the urinary tract in that they are excreted in a high percentage (50-70% over 24 hours after the administration of 50 mg/kg per os) as such, and in metabolic active form, through the urine.

bacteria = test: antibacterial activity in vitro, overall; format: cell-based; settings: for anti-bacterial activity in vitro: Table 1; for activity with chlorine instead of fluorine in the X-position: comparison with (a), (c), (p)
Protocol: as §1, §2, §3

Enterobacter = test: MIC in agar, Enterobacter; format: cell-based; settings: Isosensitest agar, 10^4 CFU, 24 h, 37° C., read-out: MIC, F = Enterobacter
Protocol: as §1, §2, §3

Pseudomonas aeruginosa = test: MIC in agar, Pseudomonas aeruginosa; format: cell-based; settings: Isosensitest agar, 10^4 CFU, 24 h, 37° C., read-out: MIC, B = Pseudomonas aeruginosa
Protocol: as §1, §2, §3
B = P udomonas aeruginosa

[1] = pharmacokinetic test, absorption; format: in vivo
Klebsiella pneumoniae = test: MIC in agar, Klebsiella pneumoniae; format: cell-based; settings: Isosensitest agar, 10^4 CFU, 24 h, 37° C., read-out: MIC, E = Klebsiella pneumoniae
Protocol: as §1, §2, §3
E = Klebsiella pneumoniae

Staphylococcus aureus = test: MIC in agar, Staphylococcus aureus; format: cell-based; settings: Isosensitest agar, 10^4 CFU, 24 h, 37° C.
Protocol: as §1, §2, §3

[2] = system: Proteus Morgani (indole +); test: MIC in agar, Proteus Morgani (indole +); format: cell-based; settings: Isosensitest agar, 10^4 CFU, 24 h, 37° C.; read-out: MIC, D = Proteus Morgani (indole +)
Protocol: as §1, §2, §3
D = Proteus Morgani (indole +)

Escherichia coli (981) = test: MIC in agar, Escherichia coli (981); format: cell-based; settings: Isosensitest agar, 10^4 CFU, 24 h, 37° C.
Protocol: as §1, §2, §3
A = Escherichia coli (981)

in vivo = settings: rat, po
Protocol: In Table 4 the percentage of urinary excretion of compound (h) is reported, as measured in the 24 hours successive to oral administration of the same to rats.
Each value is the average of three tested rats.
The tests have been performed in comparison with Ofloxacin, a well known antibacterial compound. The amount of excreted product has been determined with microbiological analysis, by using Klebsiella Pneumoniae as the testing microorganism.

dose excreted at 24 h (in vivo; 20 mg/kg) [%]	dose excreted at 24 h (in vivo; 50 mg/kg) [%]	SMILES	MIC (Citrobacter) [µg/mL]	anti-bacterial activity in vitro (bacteria)	MIC (Enterobacter) [µg/mL]	MIC (Pseudomonas aeruginosa) [µg/mL]	absorption [1]	MIC (Klebsiella pneumoniae) [µg/mL]	MIC (Staphylococcus aureus) [µg/mL]	MIC [2] [µg/mL]	MIC (Escherichia coli (981)) [µg/mL]	activity with chlorine instead of fluorine in the X-position (bacteria)
		O=C(O)c1cn2c3c(c(Cl)c(F)cc3c1=O)SCC2 [(a), 9-fluoro-10-chloro-7-oxo-2,3-dihydro-7H-pyrido[1,2,3de][1,4]benzothiazine-6-carboxylic acid]	0.78 (≈ 2.6 µM)	very good and comparable anti-bacterial activity	0.39 (≈ 1.3 µM)	> 25	not at all absorbed	0.78 (≈ 2.6 µM)	0.39 (≈ 1.3 µM)	1.56 (≈ 5.21 µM)	0.39 (≈ 1.3 µM)	
		O=C(O)c1cn2c3c(c(N4CCCC4)c(F)cc3c1=O)SCC2 [(c)]	25 (≈ 74.8 µM)	very good and comparable anti-bacterial activity	1.56 (≈ 4.67 µM)	3.12 (≈ 9.33 µM)		1.56 (≈ 4.67 µM)	< 0.39	3.12 (≈ 9.33 µM)	1.56 (≈ 4.67 µM)	
		O=C(O)c1cn2c3c(c(N4CCCC4)c(F)cc3c1=O)[S+]([O-])CC2 (centres unmarked) [(e)]	50 (≈ 143 µM)		50 (≈ 143 µM)	> 50		25 (≈ 71.4 µM)	12.5 (≈ 35.7 µM)	> 50	12.5 (≈ 35.7 µM)	
		O=C(O)c1cn2c3c(c(N4CCCC4)c(F)cc3c1=O)S(=O)(=O)CC2 [(f), 9-fluoro-10-(1-pyrrolidinyl)-7-oxo-2,3-dihydro-7H-pyrido[1,2,3 de][1,4]benzothiazine-1,1-dioxido-6-carboxylic acid]	25 (≈ 68.2 µM)		25 (≈ 68.2 µM)	> 50		25 (≈ 68.2 µM)	3.12 (≈ 8.52 µM)	> 50	3.12 (≈ 8.52 µM)	
		O=C(O)c1cn2c3c(c(N4CCNCC4)c(F)cc3c1=O)SCC2 [(g)]	0.78 (≈ 2.23 µM)	very good and comparable anti-bacterial activity	< 0.39	12.5 (≈ 35.8 µM)		< 0.39	0.78 (≈ 2.23 µM)	1.56 (≈ 4.46 µM)	0.39 (≈ 1.12 µM)	
		O=C(O)c1cn2c3c(c(N4CCN(CC(F)(F)F)CC4)c(F)cc3c1=O)SCC2 [(i)]	12.5 (≈ 29 µM)		> 50	> 50		> 50	0.39 (≈ 0.904 µM)	> 50	> 50	
		O=C(O)c1cn2c3c(c(N4CCN(C(=O)C(F)(F)F)CC4)c(F)cc3c1=O)SCC2 [(l)]	0.39 (≈ 0.876 µM)	very good and comparable anti-bacterial activity	< 0.39	12.5 (≈ 28.1 µM)		< 0.39	1.56 (≈ 3.5 µM)	1.56 (≈ 3.5 µM)	< 0.39	
		CC1CN(c2c(F)cc3c(=O)c(C(=O)O)cn4c3c2SCC4)CC(C)N1 (centres unmarked) [(m)]	12.5 (≈ 33.1 µM)		3.12 (≈ 8.27 µM)	100 (≈ 265 µM)		6.25 (≈ 16.6 µM)	3.12 (≈ 8.27 µM)	25 (≈ 66.2 µM)	6.25 (≈ 16.6 µM)	
		CC1CSc2c(Cl)c(F)cc3c(=O)c(C(=O)O)cn1c23 (centres unmarked) [(n), 9-fluoro-10-chloro-3-methyl-7-oxo-2,3-dihydro-7H-pyrido[1,2,3 de][1,4]benzothiazine-6-carboxylic acid]		very good and comparable anti-bacterial activity	0.39 (≈ 1.24 µM)	25 (≈ 79.7 µM)		0.78 (≈ 2.49 µM)	0.39 (≈ 1.24 µM)		0.39 (≈ 1.24 µM)	
		CC1CSc2c(F)c(F)cc3c(=O)c(C(=O)O)cn1c23 (centres unmarked) [(o), 9,10-difluoro-3-methyl-7-oxo-2,3-dihydro-7H-pyrido[1,2,3 de][1,4]benzothiazine-6-carboxylic acid]		very good and comparable anti-bacterial activity								
		CC1CSc2c(N3CCN(C)CC3)c(F)cc3c(=O)c(C(=O)O)cn1c23 (centres unmarked) [(p)]		very good and comparable anti-bacterial activity	< 0.39	50 (≈ 132 µM)		< 0.39	0.78 (≈ 2.07 µM)		0.78 (≈ 2.07 µM)	
		CC1CSc2c(N3CCNCC3)c(F)cc3c(=O)c(C(=O)O)cn1c23 (centres unmarked) [(r)]		very good and comparable anti-bacterial activity	< 0.39	12.5 (≈ 34.4 µM)		< 0.39	0.78 (≈ 2.15 µM)		0.78 (≈ 2.15 µM)	
		O=C(O)c1cn2c3c(c(Cl)c(Cl)cc3c1=O)SCC2 [Comparison (b), reference compound]	> 50		> 50	> 50		12.5 (≈ 39.5 µM)	0.78 (≈ 2.47 µM)	6.25 (≈ 19.8 µM)	> 50	strongly reduced
		O=C(O)c1cn2c3c(c(N4CCCC4)c(Cl)cc3c1=O)SCC2 [Comparison (d), reference compound]	> 50		> 50	> 50		12.5 (≈ 35.6 µM)	0.78 (≈ 2.22 µM)	3.12 (≈ 8.89 µM)	> 50	strongly reduced
		CC1CSc2c(N3CCN(C)CC3)c(Cl)cc3c(=O)c(C(=O)O)cn1c23 (centres unmarked) [Comparison (q), reference compound]			> 50	> 12.5		12.5 (≈ 31.7 µM)	3.12 (≈ 7.92 µM)		> 50	strongly reduced
61 ± 4.58	54.5 ± 5.29	CC1COc2c(N3CCN(C)CC3)c(F)cc3c(=O)c(C(=O)O)cn1c23 (centres unmarked) [Ofloxacin, reference compound]										
